Test results reported in US20100313310A1, “METHOD FOR IMPROVED UTILIZATION OF THE PRODUCTION POTENTIAL OF TRANSGENIC PLANTS” (priority 2006, published 2010).

Experiments:
[1] = system: armyworm (Spodoptera frugiperda); assay: Spray treatment of transgenic maize lines against armyworm, kill in %, Colby synergy; format: in vivo; conditions: spirotetramate at 100 ppm by spray where applied
Source text: (§1) This is based on the following calculation base and assumption (“Colby formula”): […]
(§2) If • X is the kill rate, expressed in % of the untreated and not transgenically modified control, when employing the active compound A at an application rate of m g/ha or at a concentration of m ppm, • Y is the kill rate, expressed in % of the untreated and not transgenically modified control, when using a transgenic plant and • E is the kill rate, expressed in % of the untreated and not transgenically modified control, when employing active compound A and using a transgenically modified plant, the application rate being m and n g/ha or the concentration being m and n ppm, then
(§3) If the actual kill rate (i.e. the activity observed) is higher than the calculated one, the combination of active compound treatment and transgenically modified plant is superadditive in its kill, i.e. a synergistic effect between the active compound treatment and the use of a transgenic plant is present. In this case, the actually observed kill rate must thus be higher than the value calculated using the formula above for the kill rate (E). […]
(§4) After a desired period of time, the kill in % is determined by counting the animals. […]

[2] = system: cotton aphid (Aphis gossypii); assay: Spray treatment of transgenic cotton (line DP444 BG/RR) populated by cotton aphid, kill in %, Colby synergy; format: in vivo; conditions: spirotetramate at 100 ppm by spray where applied
Source text: as §1, §2, §3, §4

[3] = system: armyworm (Spodoptera exigua); assay: Spray treatment of transgenic maize lines against larvae of the armyworm, kill in %, Colby synergy; format: in vivo; conditions: spirotetramate at 100 ppm by spray where applied
Source text: as §1, §2, §3, §4

melting point | Compound | also measured
> 220 °C | COC1CCC2(CC1)NC(=O)C(c1cc(C)ccc1C)=C2O (stereo not drawn) | 
> 220 °C | COC1CCC2(CC1)NC(=O)C(c1c(C)ccc(Br)c1C)=C2O (stereo not drawn) | 
219 °C | COC1CCC2(CC1)NC(=O)C(c1c(C)ccc(Cl)c1C)=C2O (stereo not drawn) | 
162 °C | CCOC(=O)OC1=C(c2cc(C)c(Cl)cc2C)C(=O)NC12CCC(OC)CC2 (stereo not drawn) | 
> 220 °C | COC1CCC2(CC1)NC(=O)C(c1c(C)cc(C)c(C)c1C)=C2O (stereo not drawn) | 
 | spirotetramate | Kill in % after 1d (observed) ([1]; after 1 d): 0%; Kill in % after 4d (observed) ([1]; after 4 d): 60%; Kill in % after 4d (observed) [2]: 35%; Kill in % after 4d (observed) [3]: 10%
